These results are taken from PubChem BioAssay (NCI).

Test systems include UO-31 renal; UACC-257 melanoma; NCI-H460 lung; COLO 205 colon; HOP-92 NSCLC; LOX IMVI melanoma; SF-295 CNS; SR leukemia; SF-539 CNS.
Common to all, as to experiment: inhibition of tumour cell growth, NCI panel, 48 h

The structures appear in SMILES notation.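 Dose response: 5 concentrations. Exposure: 48 h. Format: 96-well plates. Endpoint: linear interpolation; highest concentration if not reached. Abbreviation: GI50, concentration required for 50% inhibition of growth. TGI marks complete inhibition of growth.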 Where only a bound is given, the exact number is not on record here.

Turning to `CCCN1CCN(c2ccc3nc(-c4ccc5nc(-c6cc(OC)ccc6OC)[nH]c5c4)[nH]c3c2)CC1`, the GI50 was 14.6 µM with UO-31 renal; 20 µM with UACC-257 melanoma; 1.91 µM in the experiment on NCI-H460 lung; 2.17 µM in the experiment on COLO 205 colon; 11 µM in the experiment on HOP-92 NSCLC; 1.73 µM in the experiment on LOX IMVI melanoma. In addition, the GI50 in the experiment with SF-295 CNS was 15.7 µM; with SR leukemia it was 2.55 µM; with SF-539 CNS it was 14.4 µM. Besides, the TGI with UO-31 renal came out at 29.3 µM; in the experiment on UACC-257 melanoma, 39.2 µM; in the experiment on NCI-H460 lung, 3.56 µM; in the experiment with COLO 205 colon, 4.83 µM; in the experiment with HOP-92 NSCLC, 27 µM; in the experiment with LOX IMVI melanoma, 3.26 µM. Besides, the TGI with SF-295 CNS was 30.1 µM; with SR leukemia, 5.54 µM; with SF-539 CNS, 28.7 µM.

On to `COc1cccc(-c2nc3sccn3c2-c2ccnc(NCCNS(=O)(=O)c3ccccc3)c2)c1`, for which the GI50 with UO-31 renal is 0.59 µM; with UACC-257 melanoma, 4.47 µM; in the experiment with NCI-H460 lung, 3.47 µM; in the experiment on COLO 205 colon it was 1.87 µM; in the experiment with HOP-92 NSCLC, 0.596 µM; in the experiment with LOX IMVI melanoma, 3.01 µM. For the same compound, the GI50 is 2.62 µM in the experiment with SF-295 CNS, 3.21 µM with SR leukemia and 4.98 µM in the experiment on SF-539 CNS. The TGI was 6.65 µM with UO-31 renal; 55.2 µM in the experiment with UACC-257 melanoma; above 100 µM in the experiment on NCI-H460 lung; 18.2 µM with COLO 205 colon; 33.6 µM in the experiment on HOP-92 NSCLC; 84.1 µM in the experiment with LOX IMVI melanoma. Besides, the TGI in the experiment on SF-295 CNS, in the experiment with SR leukemia and in the experiment on SF-539 CNS was above 100 µM in each case.

For the compound `O=C1c2cc([N+](=O)[O-])ccc2-c2cccc(F)c21`, the TGI with UO-31 renal, in the experiment with UACC-257 melanoma, in the experiment on NCI-H460 lung, in the experiment with COLO 205 colon, in the experiment with HOP-92 NSCLC and in the experiment with LOX IMVI melanoma was above 100 µM throughout. The TGI in the experiment with SF-295 CNS, with SR leukemia and in the experiment on SF-539 CNS was above 100 µM in each case.

As to `COc1ccc2c(CN3CCC[C@H]3C(=O)O)cc3cc4c(cc3c2c1)OCO4`, the GI50 is 17 µM in the experiment with UO-31 renal; 12.6 µM in the experiment with UACC-257 melanoma; 14.6 µM in the experiment with NCI-H460 lung; 6.3 µM in the experiment on COLO 205 colon; 17.4 µM with HOP-92 NSCLC; 5.06 µM with LOX IMVI melanoma. Besides, the GI50 with SF-295 CNS was 8.88 µM; with SR leukemia, 6.23 µM; with SF-539 CNS, 10.7 µM. The TGI was above 100 µM in the experiment with UO-31 renal; 45.8 µM in the experiment on UACC-257 melanoma; 88.2 µM in the experiment on NCI-H460 lung; 46.2 µM in the experiment with COLO 205 colon; 82.5 µM in the experiment on HOP-92 NSCLC; 43.6 µM in the experiment on LOX IMVI melanoma. For the same compound, the TGI in the experiment on SF-295 CNS is 39.4 µM; in the experiment on SR leukemia, above 100 µM; in the experiment with SF-539 CNS it was 29.5 µM.

Turning to `Cc1cc(-c2nnc(N)nc2-c2ccc(F)cc2)cc(Cl)n1`, the GI50 with UO-31 renal is 24.3 µM; in the experiment with UACC-257 melanoma, 78.9 µM; in the experiment on NCI-H460 lung, above 100 µM; in the experiment with COLO 205 colon, above 100 µM; in the experiment on HOP-92 NSCLC, 11.5 µM; in the experiment on LOX IMVI melanoma it was above 100 µM. Also, the results for the GI50 with SF-295 CNS, with SR leukemia and with SF-539 CNS were 72.7 µM, 64 µM and above 100 µM, respectively. The TGI with UO-31 renal, with UACC-257 melanoma, with NCI-H460 lung, with COLO 205 colon, with HOP-92 NSCLC and in the experiment on LOX IMVI melanoma was above 100 µM each time. Moreover, the TGI in the experiment with SF-295 CNS, with SR leukemia and with SF-539 CNS was above 100 µM throughout.

As to `C=CCC(C(=O)O)c1ccccc1` (stereo not given), the TGI in the experiment on UO-31 renal, with UACC-257 melanoma, with NCI-H460 lung, in the experiment on COLO 205 colon, with HOP-92 NSCLC and with LOX IMVI melanoma was above 100 µM throughout. In addition, the TGI in the experiment on SF-295 CNS, with SR leukemia and with SF-539 CNS was above 100 µM throughout.

In the case of `O=CN1N=C(c2ccc(Cl)cc2)CC1c1cccc(Nc2ccnc3cc(Cl)ccc23)c1` (stereo not given), the GI50 was 1.7 µM with UO-31 renal; 1.47 µM with UACC-257 melanoma; 1.86 µM in the experiment with NCI-H460 lung; 1.43 µM in the experiment with COLO 205 colon; 1.45 µM in the experiment on HOP-92 NSCLC; 1.29 µM with LOX IMVI melanoma. The GI50 with SF-295 CNS was 0.504 µM; in the experiment on SR leukemia, 0.404 µM; in the experiment on SF-539 CNS it was 1.69 µM. Besides, the TGI was above 100 µM with UO-31 renal; 20.9 µM with UACC-257 melanoma; 11.9 µM in the experiment on NCI-H460 lung; 4.51 µM with COLO 205 colon; above 100 µM with HOP-92 NSCLC; 3.42 µM in the experiment with LOX IMVI melanoma. Also, the TGI is 9.75 µM in the experiment with SF-295 CNS, 3.76 µM in the experiment on SR leukemia and 5.03 µM in the experiment with SF-539 CNS.

As to `COc1cc(C(c2cc3c(cc2O)OCO3)N2CCCCC2)cc(OC)c1OC` (stereo not given), the TGI came to 28.3 µM in the experiment with UO-31 renal; 25.7 µM in the experiment on UACC-257 melanoma; 45.8 µM with NCI-H460 lung; 26.6 µM with COLO 205 colon; 23.1 µM with HOP-92 NSCLC; 28.4 µM with LOX IMVI melanoma. Besides, the TGI in the experiment on SF-295 CNS is above 100 µM; with SR leukemia, above 23.5 µM; in the experiment on SF-539 CNS, 33.9 µM.

Turning to `CCN=c1cc2sc3cc(NCC)c(C)cc3nc-2cc1C`, the GI50 in the experiment with UO-31 renal is 2.16 µM; in the experiment on UACC-257 melanoma it was 1.66 µM; in the experiment on NCI-H460 lung it was 0.821 µM; in the experiment with COLO 205 colon, 2.15 µM; in the experiment on HOP-92 NSCLC it was 0.652 µM; with LOX IMVI melanoma, 0.746 µM. Further, the GI50 was 0.669 µM with SF-295 CNS, 1.01 µM in the experiment with SR leukemia and 0.434 µM with SF-539 CNS. Moreover, the TGI turned out to be 16.4 µM in the experiment on UO-31 renal; 6.55 µM in the experiment on UACC-257 melanoma; 5 µM in the experiment on NCI-H460 lung; 7.78 µM in the experiment on COLO 205 colon; 5.62 µM in the experiment on HOP-92 NSCLC; 4.28 µM in the experiment on LOX IMVI melanoma. Further, the results for the TGI in the experiment on SF-295 CNS, with SR leukemia and in the experiment on SF-539 CNS were 4.81 µM, above 100 µM and 10.2 µM, respectively.
